# Data from patent publication US12390423B2 (priority 2019, dated 2025).
# Experiments:
# [1] = system: INS-1 (832/13) cells; assay: Cellular ATP content in INS-1 (832/13) cells; assay type: cell-based, rat; conditions: 25 μM AvoB, palmitate challenged, 24 h
# Description: Total cellular ATP content was determined using the ATP bioluminescent assay kit (Calbiochem, 119107). Briefly, cells were seeded in white walled 96-well plates (1.2×10^4 cells/well for INS-1 and 2×10^4 cells/well for C2C12) and treated for 24 h (C2C12 cells were differentiated for 5 days prior to treatments whereas INS-1 cells were treated 24 h after seeding). After treatment, culture media was removed, and cells were lysed with nucleotide releasing buffer with gentle shaking for 5 min. ATP monitoring enzyme was then added to cell lysates and plates and luminescence was read in a Biotek Synergy HT spectrophotometer (Biotek; Winooski, VT).
# [2] = system: INS-1 (832/13) cells; assay: Cell viability (propidium iodide, flow cytometry) in INS-1 (832/13) cells; assay type: cell-based; conditions: AvoB 24 h
# Description: Quantitative analysis of cell death was evaluated by flow cytometry using propidium iodide staining (Biovision, Mountainview, CA), where specified, according to the manufacturer's protocol and as previously described^28. Viable cells were identified as PI negative (PI−).
# [3] = system: pAkt-Ser473 and CPT-1A; assay: Immunoblotting of gastrocnemius muscle lysates of DIO mice; assay type: in vivo, C57BL/6J mice
# Description: For all cell culture experiments, after drug treatments cells were washed with chilled phosphate-buffered saline (PBS), and lysed in chilled lysis buffer with 1× protease inhibitor cocktail (Sigma). RIPA lysis buffer (Sigma-Aldrich) was used for INS-1 (832/13) cells and muscle lysis buffer for C2C12 myotubes (20 mM HEPES, 10 mM NaCl, 1.5 mM MgCl2, 1 mM DTT, 20% glycerol, and 0.1% Triton-X100). Cells were scraped, mechanically homogenized using a syringe and centrifuged at 14,000×g for 20 min at 4° C. and the supernatants were collected. For preparation of all gastrocnemius muscle lysates, 10 mg frozen tissue (wet weight) was washed in chilled PBS, placed in a dounce homogenizer, lysed in muscle lysis buffer and centrifuged at 14,000×g for 20 min at 4° C. and the supernatant was collected. Protein content for cell and tissue lysates was measured using the BCA protein assay kit (ThermoFisher) according to manufacturer's protocol. Thirty μg protein lysates were prepared in loading buffer and immunoblotting was performed by heating lysates for 5 minutes at 95° C. and subjecting them to gel electrophoresis on 10% SDS-polyacrylamide gels at 150 V for 75 minutes. Using a semi-dry transfer apparatus (Bio-Rad) the gels were then transferred at 25V for 45 minutes to a PVDF membrane and blocked with 5% BSA (Sigma) in tris-buffered saline-tween (TBS-T) for 1 hour. […]
# [4] = Intraperitoneal glucose and insulin tolerance tests (GTT, ITT) and HOMA-IR in DIO mice; assay type: in vivo, C57BL/6J mice; conditions: HFD mice, AvoB 100 mg/kg b.w. twice weekly
# Description: Intraperitoneal glucose and insulin tolerance tests (GTT and ITT) were performed 8 hours after food withdrawal. For GTT, a glucose dose of 1.5 g/kg was used for mice on both HFD and standard diet. For ITT, an insulin (Humulin, Eli Lilly, USA) dose of 1 U/kg and 0.25 U/kg was used for mice on HFD and standard diet, respectively. Blood glucose levels were determined at 0, 10, 20, 30, 60, and 90 minutes after glucose/insulin administration via tail bleed using the OneTouch Blood Ultra 2 glucose meters (LifeScan Europe, Switzerland).
# The homeostasis model assessment was used to calculate the insulin resistance (HOMA-IR) index^60 using the values of fasting plasma glucose (FPG) and fasting plasma insulin (FPI) as follows: […]; HOMA-IR=FPGxFPI/22.5, with FPG expressed as mmol/L and FPI as mIU/L.
# [5] = system: C2C12 myotubes; assay: Glucose oxidation and 2-NBDG glucose uptake in C2C12 myotubes; assay type: cell-based, mouse
# Description: C2C12 myotubes and INS-1 (832/13) cells treated as in the FAO assays described above and then incubated with D-[^14C(U)]-glucose (0.58 μC/mL) and unlabeled glucose (final glucose concentration 200 μM) for 4 h subsequent to which [^14C]—CO2 (representing complete glucose oxidation) and ASMs (representing incomplete glucose oxidation) were captured and quantified as described in the FAO method. For C2C12 myotubes, glucose oxidation and uptake was measured with and without a 30 min pre-incubation with 100 nM insulin to determine basal and insulin-mediated glucose oxidation or uptake, respectively.
# To measure glucose uptake in C2C12 myotubes, a fluorescent D-glucose analog 2-(N-[7-nitrobenz-2-oxa-1,3-diazol-4-yl]amino)-2-deoxy-D-glucose (2-NBDG) was utilized. Briefly, myotubes were treated for 24 h with test compound after which they were washed twice with PBS and starved for 1 h in serum and glucose free DMEM. Following starvation, 100 nM insulin was added for 30 min after which 60 μM 2-NBDG was added to each well and allowed to incubate for 30 min. The 2-NBDG uptake reaction was then stopped by removing the incubation medium and washing the cells twice with PBS after which the cells were trypsinized and collected for flow cytometry analysis (Guava 8HT; EMD Millipore, Billerica, MA).
substance,measurement,setting,value
avocatin B [AvoB],Total cellular ATP content,[1],restores total cellular ATP content
same,Cell viability,[2],no effect on cell viability
same,Phosphorylation of AKT Ser473 in gastrocnemius muscle,[3]; AvoB-treated-HFD mice vs HFD-control mice,increased phosphorylation of AKTSer473
same,CPT-1A protein level in gastrocnemius muscle,[3]; HFD-control mice compared to AVO-treated-HFD mice,higher protein levels of CPT-1A in gastrocnemius muscle compared to AVO-treated-HFD mice
same,HOMA-IR index,[4],"comparable to lean, STD mice"
same,"Glucose tolerance (GTT, AUC)","[4]; vs HFD-control, i.p. glucose 1.5 g/kg",significantly improved glucose tolerance
same,"Whole body insulin sensitivity (ITT, AUC)","[4]; vs HFD-control, i.p. insulin",greater insulin sensitivity
same,Insulin stimulated glucose uptake (2-NDBG),"[5]; 25 μM AVO, 0.5 mM palmitate 24 h, vs palmitate only",increased glucose uptake compared to palmitate only treated cells
same,Basal and insulin stimulated glucose oxidation (D-[14C(U)]-glucose to CO2),"[5]; 25 μM AvoB, excess palmitate, 24 h",increased basal and insulin stimulated glucose oxidation
